Values joined by “and” are separate entries in the source; they are usually repeats but may differ in a detail not shown here. Equal values may be shown once. Active and inactive are the calls of the source. The rule behind the calls is not given here.

What is called IC50 is the concentration that inhibits the measured activity by half.

This test has as its target CCHF virus vOTU protease domain (L polyprotein). Nature of the test: CCHF virus vOTU protease inhibition, Pep AMC substrate counterscreen, fluorescence, confirmatory IC50 (AID 720577). Conditions: purified vOTU. A general note: The purpose of a counterscreen is to sort out artefacts and off-target activity.
`CN(C)c1ccc2nc3ccc(=O)cc-3sc2c1`: the IC50 is > 115 µM (inactive).
Consider `O=C(O)c1ccc(NC2=C/C(=N/S(=O)(=O)c3cccs3)c3ccccc3C2=O)cc1`, for which the IC50 was 1.4 µM.
Take `CCCCCCCCCCCCCCCC[n+]1ccccc1`: the half-inhibitory concentration (IC50) was 7.79 µM and 8.46 µM and 6.99 µM.
Consider `CN1CCN(C2=C(Cl)C(=O)c3ccccc3C2=O)CC1`, for which the half-maximal inhibitory concentration (IC50) was 1.07 µM.
Turning to `CC(C)NC1=C(Cl)C(=O)c2ccccc2C1=O`, the IC50 result is “inactive”.
In the case of `O=C(O)c1cccc(NC2=C(N3CCOCC3)C(=O)c3ccccc3C2=O)c1`, the IC50 result is “inactive”.
Turning to `O=C1OC(Nc2cc(Br)cc3cccnc23)c2ccccc21` (centres undefined), the IC50 is 5.44 µM.
Turning to `Cc1ccc(CNc2ccc(O)cc2)cc1`, the IC50 entry is “inactive”.
To `COc1ccc(S(=O)(=O)/N=C2\C=C(Nc3ccc(O)cc3)C(=O)c3ccccc32)cc1` belongs 1.33 µM; to `CC1(OC(=O)C2CCCC2)C(=O)C=C2C=C(c3ccsc3)N(CCCCO)C=C2C1=O` (centres undefined), “inactive”.
On to `O=[N+]([O-])c1cc(O)c2ncccc2c1`, for which the IC50 result was “inactive”.
Take `COC1=C(Br)C(=O)c2nc(C)ccc2C1=O`: the IC50 result is “inactive”.
As for `COc1cc(C(=O)c2nccc3cc(OC)c(OC)cc23)c([N+](=O)[O-])cc1OC`, the 50% inhibitory concentration (IC50) was 4.04 µM.
To `O=c1[nH]c(Nc2ccccc2)cc2cc(Br)ccc12` belongs 1.45 µM; to `CCc1ccc(S(=O)(=O)Nc2cc(SCC(=O)O)c(O)c3ccccc23)cc1`, “inactive”; to `Cc1oc2c(c1C(=O)O)C(=O)c1ccccc1C2=O`, “inactive”.
Turning to `O=C(NC(=S)Nc1ccccc1N1CCCC1)c1cccs1`, the IC50 is > 115 µM (inactive).
On to `CCn1nc(/C=C/c2ccccc2)nc2c(=O)n(C)c(=O)nc1-2`, for which the IC50 is 0.487 µM.
Regarding `COc1cc(Br)c(C(=O)c2nccc3cc(OC)c(OC)cc23)cc1OC`, the IC50 is 1.13 µM.
As to `Cc1cc(=O)c2c(o1)C(=O)c1occc1C2=O`, the IC50 result was “inactive”.
Turning to `Cc1ccc(S(=O)(=O)/N=C2\C=C(Nc3cccc(C(=O)O)c3)C(=O)c3ccccc32)cc1`, the IC50 is 1.99 µM.
Regarding `CCOC(=O)/C=C(\C)Sc1cc(O)c2ccccc2c1O`, the half-inhibitory concentration (IC50) is 4.61 µM.
Take `O=C(O)c1ccc(NC2=C(n3nnc4ccccc43)C(=O)c3ccccc3C2=O)cc1`: the IC50 entry is “inactive”.
For `CC[C@H](CO)Oc1cc(NCc2cccc(N)c2)c2ncn(C(C)C)c2c1`, the IC50 result is “inactive”.
Turning to `Oc1ccccc1CNc1cccc2cccnc12`, the IC50 result is “inactive”.
Regarding `O=C(O)c1cccc(NC2=C(n3nnc4ccccc43)C(=O)c3ccccc3C2=O)c1`, the IC50 result was “inactive”.
To `COc1ccccc1Nc1cc2cc(Br)ccc2c(=O)[nH]1` belongs 1.36 µM; to `CC(=O)[C@H]1[C@@H]2C(=O)N(c3cccc(Cl)c3)C(=O)[C@@H]2[C@H]2c3ccccc3C=CN21`, “inactive”.
`CC(C)=CCC1=C(OCC(=O)O)C(=O)c2ccccc2C1=O`: the IC50 entry was “inactive”.
To `O=C1C=C(N2CC2)c2ccccc2C1=O` belongs 8.1 µM.
To `O=C(O)c1cc(O)c2c(c1)[C@H]([C@H]1c3cc(C(=O)O)cc(O)c3C(=O)c3c(O[C@@H]4O[C@H](CO)[C@@H](O)[C@H](O)[C@H]4O)cccc31)c1cccc(OC3O[C@H](CO)[C@@H](O)[C@H](O)[C@H]3O)c1C2=O` (some centres undefined) belongs 7.68 µM.
To `C[n+]1c(-c2ccccc2)cc2c(=Cc3ccccc3)c3ccccc3n21` belongs 3.65 µM; to `Cc1cnc(C=NNC(N)=S)c2cccc(N)c12`, “inactive”.
For `COC1=CC(=O)c2c(ccc3ncnc(N)c23)C1=O`, the 50% inhibitory concentration (IC50) was 0.853 µM.
Turning to `Cc1cccc(NC(=O)c2sc3nc4c(c(-c5cccs5)c3c2N)CN(C)CC4)c1`, the IC50 result is “inactive”.
Turning to `CCCCCCCCN1C(=O)[C@@H](CC(=O)NCCCOCCCC)C[C@@]2(C(=O)OC)C1=C[C@H](C(C)C)O[C@@H]2C1CC1`, the IC50 entry was “inactive”.
With `COc1cccc2c1C(=O)c1c(O)c3c(c(O)c1C2=O)C[C@@](O)(C(=O)CO)C[C@@H]3O[C@H]1C[C@H](N)[C@H](O)[C@H](C)O1`, the IC50 result is “inactive”.
As for `O=C1C=C(N2CCOCC2)c2ccccc2C1=O`, the IC50 entry is “inactive”.
To `O=C1C(Nc2ccccc2)=C(N2CCCCC2)C(=O)c2ccccc21` belongs “inactive”; to `COc1ccccc1NC(=O)COC(=O)c1ccc([N+](=O)[O-])s1`, “inactive”.
Consider `Nc1ccc(N2CCCCC2)c2nonc12`, for which the IC50 entry was “inactive”.
As for `COc1cc(NCCCC(C)N)c2ncccc2c1` (centres undefined), the half-inhibitory concentration (IC50) is 4.6 µM.
With `O=C(N/N=C1\C/C(=N\NC(=O)c2ccncc2)c2ccccc21)c1ccncc1`, the IC50 was 1.81 µM.
For the compound `O=C1Cc2ccccc2C(=O)N1`, the half-inhibitory concentration (IC50) is 0.597 µM.
With `O=C(COC(=O)c1ccc([N+](=O)[O-])s1)Nc1ccc(Cl)cn1`, the IC50 was > 115 µM (inactive).
As for `COC1=C(N)C(=O)c2nc(C)ccc2C1=O`, the IC50 was 4.98 µM.
In the case of `Cn1nc(-c2ccccn2)nc2c(=O)n(C)c(=O)nc1-2`, the half-maximal inhibitory concentration (IC50) is 1.16 µM.
Regarding `Cc1ccc(NC2=CC(=O)C(=O)c3ccccc32)cc1`, the IC50 entry was “inactive”.
Consider `O=C(NC1=CC(=O)c2ccccc2C1=O)c1ccccc1`, for which the IC50 result is “inactive”.
Consider `COc1ccc2noc3c2c1C(=O)c1ccccc1-3`, for which the 50% inhibitory concentration (IC50) is 6.28 µM.
As to `CC1COCC(C)N1C1=C(Cl)C(=O)c2ccccc2C1=O` (centres undefined), the IC50 entry is “inactive”.
`Cc1ccccc1-c1cc2c(nn1)-c1ccccc1C2=O`: the half-maximal inhibitory concentration (IC50) is 2.23 µM.
On to `CC(=O)N(C1=C(N)C(=O)c2ccccc2C1=O)c1ccccc1`, for which the IC50 entry is “inactive”.
For `CCOC(=O)c1cc2c(ccn2C)n1Cc1ccccc1C`, the IC50 entry is “inactive”.
Take `O=C(COC(=O)c1ccc([N+](=O)[O-])s1)Nc1ccc(F)cc1`: the IC50 entry was “inactive”.
To `CCOc1ccc2noc3c2c1C(=O)c1ccccc1-3` belongs “inactive”.
On to `C[n+]1c2ccccc2nc2ccc(NCCO)cc21`, for which the IC50 entry was “inactive”.
`Oc1c(C=Nc2cccc3nsnc23)ccc2ccccc12`: the IC50 entry was “inactive”.
As for `O=C(/C=C/c1ccc(O)cc1)c1ccc(NC2=C(N3CCCCC3)C(=O)c3ccccc3C2=O)cc1`, the IC50 entry was “inactive”.
To `O=C(O)c1ccc(S(=O)(=O)/N=C2\C=C(Nc3ccccc3F)C(=O)c3ccccc32)cc1` belongs 1.24 µM; to `CN1CCC/C1=C/C=C1\SC(=S)NC1=O`, “inactive”.
`COc1cc2c(cc1OC)-c1c(OC)c(OC)cc3c1[C@H](C2)N(C)CC3`: the IC50 is > 12.7 µM (inactive).
`O=C(/C=C/c1ccc([N+](=O)[O-])s1)N1CCCCC1`: the IC50 was > 115 µM (inactive).
As to `CC(=O)[C@@H]1[C@@H]2C(=O)N(c3ccc(F)c(Cl)c3)C(=O)[C@@H]2C2c3ccccc3C=CN21` (some centres undefined), the IC50 result is “inactive”.
Consider `CN(C)c1ncc(C2=C(Cl)C(=O)C(N3CCCC3)=C(Cl)C2=O)s1`, for which the IC50 entry was “inactive”.
Consider `O=C(O)CSc1cc(NS(=O)(=O)c2ccc(Cl)cc2)c2ccccc2c1O`, for which the IC50 entry is “inactive”.
Turning to `CN(C)S(=O)(=O)c1cccc(NC(=S)Nc2cccc3cnccc23)c1`, the IC50 entry is “inactive”.
Regarding `Cc1ccccc1NC1=C/C(=N\S(=O)(=O)c2cccs2)c2ccccc2C1=O`, the IC50 was 1.04 µM.
As to `Cn1c2ccccc2c2cc(/C=N/NC(=O)c3cc(O)ccc3O)ccc21`, the IC50 entry was “inactive”.
To `CC1CCCC(NC(=O)COC(=O)c2ccc([N+](=O)[O-])s2)C1C` (centres undefined) belongs “inactive”; to `COc1cc(NC(=O)COC(=O)c2ccc([N+](=O)[O-])s2)cc(OC)c1OC`, “inactive”.
Take `CC(=O)N(/N=C1\Sc2ccccc2C1=O)c1ccccc1C`: the IC50 result was “inactive”.
Turning to `O=C1C(=O)c2cccnc2-c2ncccc21`, the IC50 result was “inactive”.
With `CC(=O)N(C1=C(Cl)C(=O)c2ccccc2C1=O)C1CCCCC1`, the IC50 entry is “inactive”.
To `O=S(=O)(N=C1C=CC(=NS(=O)(=O)c2ccccc2)c2ccccc21)c1ccccc1` belongs “inactive”; to `O=S(=O)(c1ccc2nc(-c3ccco3)c(-c3ccco3)nc2c1)N1CCOCC1`, > 115 µM (inactive); to `Nc1cc2c(cc1Br)[nH]c(=O)c1ccccc12`, 4.57 µM.
`COc1ccc(Cc2nccc3cc(OC)c(OC)cc23)cc1OC`: the IC50 result was “inactive”.
To `Cn1c(=O)c2c(-c3ccccc3)n(-c3ccc(N)cc3)cc2n(C)c1=O` belongs “inactive”; to `COc1cc(NCCCCCCN)c2ncccc2c1OC`, 5.97 µM; to `O=C(O)c1ccc(NC2=C/C(=N/S(=O)(=O)c3ccccc3)c3ccccc3C2=O)cc1`, 1.03 µM.
To `CCCCCCCCCCCCCCCC[n+]1cccc2ccccc21` belongs 4.2 µM; to `NC1=C(Br)C(=O)c2ccccc2C1=O`, 6.65 µM.
To `CCN(CC)CCCC(C)n1c2nc(=O)[nH]c(=O)c-2nc2cc(Cl)ccc21` (centres undefined) belongs 5.44 µM.
Take `COc1ccc(-n2c3nc4ccccc4nc3c3c(=N)oc(C)nc32)cc1`: the IC50 is > 115 µM (inactive).
Regarding `Cc1c(C=O)c(Cl)n(C)c(=O)c1C#N`, the IC50 result is “inactive”.
Regarding `Nc1scc2c(C(=O)N/N=C/c3ccc(Cl)cc3)nn(-c3ccccc3)c(=O)c12`, the IC50 entry was “inactive”.
Under `CN(C)c1cccc2c1c(NS(=O)(=O)c1cn(C)cn1)nn2C` stands “inactive”; under `O=C1C(Nc2cccc(O)c2)=C(N2CCCCC2)C(=O)c2ccccc21`, “inactive”.
Under `O=C1NNC(c2ccccc2)=N/C1=C\c1ccccc1Cl` stands “inactive”; under `O=C(NCCCO)c1ccc2nc(-c3ccco3)c(-c3ccco3)nc2c1`, “inactive”; under `CCOC(=O)N1CCN(C2=C(NS(=O)(=O)c3ccc(C)cc3)C(=O)c3ccccc3C2=O)CC1`, “inactive”.
Regarding `N#CC1=C(S)N(c2ccccc2)C(c2ccc(-c3ccc(Cl)c(Cl)c3)o2)NC1=O` (centres undefined), the IC50 was > 115 µM (inactive).
For `Cc1cc(C)c(S(=O)(=O)/N=C2\C=C(Nc3ccc(C(=O)O)cc3)C(=O)c3ccccc32)c(C)c1`, the half-maximal inhibitory concentration (IC50) was 4.54 µM.

The values above are taken from PubChem BioAssay AID720577 (The Scripps Research Institute Molecular Screening Center, 2013).
